Results taken from patent US20040086896A1, “Polynucleotides and polypeptides associated with the NF-kB pathway” (priority 2001, published 2004).

Tests used:
AD037 mRNA [1] = test: AD037 mRNA by RT-PCR in stimulated THP-1 human monocyte line; assay type: cell-based; settings: THP-1 cells stimulated for 8, 24, or 48 hours; 100 ng/ml LPS, 10 ng/ml TNFα or 100 units/ml IFN-γ; FIG. 18
Experimental: Nonetheless, the following methods were used to assess the expression profile of the NFkB assocaited polypeptides of the present invention. Briefly, poly (A)^+ mRNA was isolated from THP-1 cells that were either unstimulated, or stimulated with 100 ng/ml LPS for two hours in the presence and absence of BMS-205820 (2 uM) using the Fast Track isolation kit (Invitrogen, Carlsbad, Calif.) according to the manufacturer's instructions. RNA quality and quantity were evaluated using UV spectrometry and capillary electrophoresis with the RNA 6000 Assay (Agilent). […]
PCR reactions were performed in a total volume of 40 ul containing master mix (SYBR Green I dye, 50 mM Tris-Cl pH 8.3, 75 mM KCl, DMSO, Rox reference dye, 5 mM MgCl2, 2 mM dNTP, I unit Platinum Taq High Fidelity enzyme), 0.5 uM each of forward and reverse gene-specific primers, and cDNA (8 ul of a 1:36 dilution of the first strand reaction mix). […] The data were analyzed using the TaqMan 5700 software with the threshold value set to 0.5. […]
The THP-1 human monocyte line was stimulated with 100 ng/ml LPS, 10 ng/ml TNFα (Peprotech, Rocky Hill, N.J.), or 100 units/ml interferon-γ (IFN-γ, Peprotech) for either 8, 24, or 48 hours. […] The levels of each NFkB associated polypeptide mRNA may be measured by RT-PCR analysis using the primers described herein for each gene. […]

AD037 mRNA [2] = test: AD037 mRNA by RT-PCR in stimulated synovial fibroblasts; assay type: cell-based; settings: synovial fibroblasts, 1, 6, or 24 hours; TNFα, IL-1α, IL-17 10 ng/ml, IL-17B-Ig fusion protein 5 ng/ml; FIG. 20
Experimental: Nonetheless, the following methods were used to assess the expression profile of the NFkB assocaited polypeptides of the present invention. Briefly, poly (A)^+ mRNA was isolated from THP-1 cells that were either unstimulated, or stimulated with 100 ng/ml LPS for two hours in the presence and absence of BMS-205820 (2 uM) using the Fast Track isolation kit (Invitrogen, Carlsbad, Calif.) according to the manufacturer's instructions. RNA quality and quantity were evaluated using UV spectrometry and capillary electrophoresis with the RNA 6000 Assay (Agilent). Five-hundred nanograms of polyA RNA was used for first-strand cDNA synthesis using the SuperScriptTm First-Strand Synthesis System for RT-PCR (Invitrogen) according to the manufacturer's instructions with 250 ng of random hexamers.
PCR reactions were performed in a total volume of 40 ul containing master mix (SYBR Green I dye, 50 mM Tris-Cl pH 8.3, 75 mM KCl, DMSO, Rox reference dye, 5 mM MgCl2, 2 mM dNTP, I unit Platinum Taq High Fidelity enzyme), 0.5 uM each of forward and reverse gene-specific primers, and cDNA (8 ul of a 1:36 dilution of the first strand reaction mix). For tissue expression analyses, PCR reactions included 2 ul of cDNA derived from the Human Multiple Tissue cDNA panel I and Human Immune System MTC Panel (Clontech, Palo Alto, Calif.). The amplification program consisted of a 10 minute incubation at 95° C., followed by 40 cycles of incubations at 95° C. for 15 seconds, 60° C. for 1 minute. The amplification was followed by melting curve analysis at 60° C. to determine the specificity of the amplification reaction. A negative control without cDNA template was run to assess the overall specificity. The data were analyzed using the TaqMan 5700 software with the threshold value set to 0.5. The message levels of GAPDH were used to normalize the amounts of cDNA for each reaction.
Synovial fibroblasts were obtained from Cell Applications, INC. […] The levels of each NFkB associated polypeptide mRNA may be measured by RT-PCR analysis using the primers described herein for each gene. […]

NF-κB pathway = test: AD037 mRNA by quantitative PCR in THP-1 monocytes, LPS with dexamethasone or IKK-2 inhibitor (FIG. 80); assay type: cell-based, human; settings: LPS, 2, 4 and 8 hours post stimulation
Experimental: The figure illustrates the basal AD037 expression in THP-1 monocytes in response to LPS (“LPS”), LPS and the glucocorticoid dexamethasone (“LP/Dex”), or LPS and the IKK-2 inhibitor BMS-345541 (“LPS/345541”), for 2 hours, 4 hours, and 8 afters post stimulation. Unstimulated THP-1 moncytes served as a control. […] Expression data was obtained by measuring the steady state AD037 mRNA levels by quantitative PCR using the PCR primer pair provided as SEQ ID NO:162 and 163 as described herein.
Moreover, in an effort to further confirm the NF-κB-dependent expression of AD037, two approaches were investigated. In the first approach, additional inhibitors of the NF-κB pathway were used to assess their affect on AD037 expression. Although it has other transcriptional effects, dexamethasone inhibits NF-κB activity via glucocorticoid receptor-mediated transrepression (Reichardt et al. (2001) EMBO J. 20:7168-7173). The compound 4(2′-aminoethyl)amino-1,8-dimethylimidazo(1,2-a) quinoxaline, is a selective IKK-2 inhibitor (International Publication No. WO 02/60386, Published Oct. 10, 2002; Burke et al. (2003) J. Biol. Chem. 278:1450-1456).

Molecule: TNFα
- AD037 mRNA level (RT-PCR, normalized to GAPDH) (AD037 mRNA [1]): upregulated
- AD037 mRNA level (RT-PCR, normalized to GAPDH) (AD037 mRNA [2]): No upregulation

Molecule: Cc1ccc2nc(NCCN)c3ncc(C)n3c2c1 [BMS-345541, 4(2′-aminoethyl)amino-1,8-dimethylimidazo(1,2-a) quinoxaline]
- LPS-induced AD037 expression (mRNA) (NF-κB pathway): reduced to control levels
- LPS-induced AD037 expression (mRNA) (NF-κB pathway; listed as 4(2′-aminoethyl)amino-1,8-dimethylimidazo(1,2-a) quinoxaline): significantly inhibited

Molecule: IFN-γ: interferon-γ (Peprotech), fails to activate the NF-KB pathway
- AD037 mRNA level (RT-PCR, normalized to GAPDH) (AD037 mRNA [1]): Little upregulation

Molecule: IL-17: IL-17 (R&D Systems) cytokine stimulus
- AD037 mRNA level (RT-PCR, normalized to GAPDH) (AD037 mRNA [2]): No upregulation

B1: IL-1α: IL-1α (Peprotech) cytokine stimulus (protein, UniProt P01583 113-271, looked up)
Interleukin-1 alpha: SAPFSFLSNVKYNFMRIIKYEFILNDALNQSIIRANDQYLTAAALHNLDEAVKFDMGAYKSSKDDAKITVILRISKTQLYVTAQDEDQPVLLKEMPEIPKTITGSETNLLFFWETHGTKNYFTSVAHPNLFIATKQDYWVCLAGGPPSITDFQILENQA
- AD037 mRNA level (RT-PCR, normalized to GAPDH) (AD037 mRNA [2]): No upregulation
